Measured values taken from ChEMBL document CHEMBL5154747, “Discovery of new carbonic anhydrase IX inhibitors as anticancer agents by toning the hydrophobic and hydrophilic rims of the active site to encounter the dual-tail approach” (Eur J Med Chem, 2022).

Tests used:
[1] = test system: A549; test: Anticancer activity against human A549 cells assessed as cell growth inhibition at 10 uM incubated for 48 hrs by SRB assay relative to control; assay type: functional; conditions: read-out: GI
[2] = test system: COLO 205; test: Anticancer activity against human COLO 205 cells assessed as cell growth inhibition at 10 uM incubated for 48 hrs by SRB assay relative to control; assay type: functional; conditions: read-out: GI
[3] = test system: K562; test: Anticancer activity against human K562 cells assessed as cell growth inhibition at 10 uM incubated for 48 hrs by SRB assay relative to control; assay type: functional; conditions: read-out: GI
[4] = test system: SF-295; test: Anticancer activity against human SF-295 cells assessed as cell growth inhibition at 10 uM incubated for 48 hrs by SRB assay relative to control; assay type: functional; conditions: read-out: GI
[5] = test system: T47D; test: Anticancer activity against human T47D cells assessed as cell growth inhibition at 10 uM incubated for 48 hrs by SRB assay relative to control; assay type: functional; conditions: read-out: GI
[6] = test system: MDA-MB-435; test: Anticancer activity against human MDA-MB-435 cells assessed as cell growth inhibition at 10 uM incubated for 48 hrs by SRB assay relative to control; assay type: functional; conditions: read-out: GI
[7] = test system: MDA-MB-468; test: Anticancer activity against human MDA-MB-468 cells assessed as cell growth inhibition at 10 uM incubated for 48 hrs by SRB assay relative to control; assay type: functional; conditions: read-out: GI
[8] = test system: CCRF-CEM; test: Anticancer activity against human CCRF-CEM cells assessed as cell growth inhibition at 10 uM incubated for 48 hrs by SRB assay relative to control; assay type: functional; conditions: read-out: GI
[9] = test system: NCI-H322M; test: Anticancer activity against human NCI-H322M cells assessed as cell growth inhibition at 10 uM incubated for 48 hrs by SRB assay relative to control; assay type: functional; conditions: read-out: GI
[10] = biological target: Carbonic anhydrase 9 (Homo sapiens, UniProt Q16790); test: Inhibition of recombinant human CA 9 preincubated for 15 mins by phenol red dye based stopped flow CO2 hydration assay
[11] = test system: NCI-H460; test: Anticancer activity against human NCI-H460 cells assessed as cell growth inhibition at 10 uM incubated for 48 hrs by SRB assay relative to control; assay type: functional; conditions: read-out: GI
[12] = test system: OVCAR-8; test: Anticancer activity against human OVCAR-8 cells assessed as cell growth inhibition at 10 uM incubated for 48 hrs by SRB assay relative to control; assay type: functional; conditions: read-out: GI
[13] = test system: HOP-92; test: Anticancer activity against human HOP-92 cells assessed as cell growth inhibition at 10 uM incubated for 48 hrs by SRB assay relative to control; assay type: functional; conditions: read-out: GI
[14] = test system: A498; test: Anticancer activity against human A498 cells assessed as cell growth inhibition at 10 uM incubated for 48 hrs by SRB assay relative to control; assay type: functional; conditions: read-out: GI
[15] = test system: U-251; test: Anticancer activity against human U-251 cells assessed as cell growth inhibition at 10 uM incubated for 48 hrs by SRB assay relative to control; assay type: functional; conditions: read-out: GI
[16] = test system: SNB-19; test: Anticancer activity against human SNB-19 cells assessed as cell growth inhibition at 10 uM incubated for 48 hrs by SRB assay relative to control; assay type: functional; conditions: read-out: GI
[17] = test system: RPMI-8226; test: Anticancer activity against human RPMI-8226 cells assessed as cell growth inhibition at 10 uM incubated for 48 hrs by SRB assay relative to control; assay type: functional; conditions: read-out: GI
[18] = test system: SW-620; test: Anticancer activity against human SW-620 cells assessed as cell growth inhibition at 10 uM incubated for 48 hrs by SRB assay relative to control; assay type: functional; conditions: read-out: GI
[19] = test system: DU-145; test: Anticancer activity against human DU-145 cells assessed as cell growth inhibition at 10 uM incubated for 48 hrs by SRB assay relative to control; assay type: functional; conditions: read-out: GI
[20] = test system: MCF7; test: Anticancer activity against human MCF7 cells assessed as cell growth inhibition at 10 uM incubated for 48 hrs by SRB assay relative to control; assay type: functional; conditions: read-out: GI
[21] = test system: UACC-62; test: Anticancer activity against human UACC-62 cells assessed as cell growth inhibition at 10 uM incubated for 48 hrs by SRB assay relative to control; assay type: functional; conditions: read-out: GI
[22] = test system: OVCAR-3; test: Anticancer activity against human OVCAR-3 cells assessed as cell growth inhibition at 10 uM incubated for 48 hrs by SRB assay relative to control; assay type: functional; conditions: read-out: GI
[23] = test system: NCI-H226; test: Anticancer activity against human NCI-H226 cells assessed as cell growth inhibition at 10 uM incubated for 48 hrs by SRB assay relative to control; assay type: functional; conditions: read-out: GI
[24] = test system: Hs-578T; test: Anticancer activity against human Hs-578T cells assessed as cell growth inhibition at 10 uM incubated for 48 hrs by SRB assay relative to control; assay type: functional; conditions: read-out: GI
[25] = test system: HOP-62; test: Anticancer activity against human HOP-62 cells assessed as cell growth inhibition at 10 uM incubated for 48 hrs by SRB assay relative to control; assay type: functional; conditions: read-out: GI
[26] = test system: EKVX; test: Anticancer activity against human EKVX cells assessed as cell growth inhibition at 10 uM incubated for 48 hrs by SRB assay relative to control; assay type: functional; conditions: read-out: GI
[27] = test system: UO-31; test: Anticancer activity against human UO-31 cells assessed as cell growth inhibition at 10 uM incubated for 48 hrs by SRB assay relative to control; assay type: functional; conditions: read-out: GI
[28] = test system: HCC 2998; test: Anticancer activity against human HCC 2998 cells assessed as cell growth inhibition at 10 uM incubated for 48 hrs by SRB assay relative to control; assay type: functional; conditions: read-out: GI
[29] = test system: SK-MEL-5; test: Anticancer activity against human SK-MEL-5 cells assessed as cell growth inhibition at 10 uM incubated for 48 hrs by SRB assay relative to control; assay type: functional; conditions: read-out: GI
[30] = test system: PC-3; test: Anticancer activity against human PC-3 cells assessed as cell growth inhibition at 10 uM incubated for 48 hrs by SRB assay relative to control; assay type: functional; conditions: read-out: GI
[31] = test system: NCI-H522; test: Anticancer activity against human NCI-H522 cells assessed as cell growth inhibition at 10 uM incubated for 48 hrs by SRB assay relative to control; assay type: functional; conditions: read-out: GI
[32] = test system: UACC-257; test: Anticancer activity against human UACC-257 cells assessed as cell growth inhibition at 10 uM incubated for 48 hrs by SRB assay relative to control; assay type: functional; conditions: read-out: GI
[33] = test system: SK-MEL-2; test: Anticancer activity against human SK-MEL-2 cells assessed as cell growth inhibition at 10 uM incubated for 48 hrs by SRB assay relative to control; assay type: functional; conditions: read-out: GI
[34] = test system: HT-29; test: Anticancer activity against human HT-29 cells assessed as cell growth inhibition at 10 uM incubated for 48 hrs by SRB assay relative to control; assay type: functional; conditions: read-out: GI
[35] = test system: CAKI-1; test: Anticancer activity against human CAKI-1 cells assessed as cell growth inhibition at 10 uM incubated for 48 hrs by SRB assay relative to control; assay type: functional; conditions: read-out: GI
[36] = test system: NCI-H23; test: Anticancer activity against human NCI-H23 cells assessed as cell growth inhibition at 10 uM incubated for 48 hrs by SRB assay relative to control; assay type: functional; conditions: read-out: GI
[37] = test system: Malme-3M; test: Anticancer activity against human Malme-3M cells assessed as cell growth inhibition at 10 uM incubated for 48 hrs by SRB assay relative to control; assay type: functional; conditions: read-out: GI
[38] = test system: SF-539; test: Anticancer activity against human SF-539 cells assessed as cell growth inhibition at 10 uM incubated for 48 hrs by SRB assay relative to control; assay type: functional; conditions: read-out: GI
[39] = test system: SK-OV-3; test: Anticancer activity against human SK-OV-3 cells assessed as cell growth inhibition at 10 uM incubated for 48 hrs by SRB assay relative to control; assay type: functional; conditions: read-out: GI
[40] = test system: KM12; test: Anticancer activity against human KM12 cells assessed as cell growth inhibition at 10 uM incubated for 48 hrs by SRB assay relative to control; assay type: functional; conditions: read-out: GI

SMILES | inhibition of growth at 10 µM [1] | inhibition of growth at 10 µM [2] | inhibition of growth at 10 µM [3] | inhibition of growth at 10 µM [4] | inhibition of growth at 10 µM [5] | inhibition of growth at 10 µM [6] | inhibition of growth at 10 µM [7] | inhibition of growth at 10 µM [8] | inhibition of growth at 10 µM [9] | Ki [10] | inhibition of growth at 10 µM [11] | inhibition of growth at 10 µM [12] | inhibition of growth at 10 µM [13] | inhibition of growth at 10 µM [14] | inhibition of growth at 10 µM [15] | inhibition of growth at 10 µM [16] | inhibition of growth at 10 µM [17] | inhibition of growth at 10 µM [18] | inhibition of growth at 10 µM [19] | inhibition of growth at 10 µM [20] | other results
NS(=O)(=O)c1ccc(Nc2nc(N/N=C/C=C/c3ccccc3)nc(Nc3ccccc3)n2)cc1 | 30% | 44% | 72% | 55% | 81% | 48% | 84% | 75% | 43% | 233 nM | 93% | 50% | 16% | 59% | 48% | 51% | 71% | 48% | 57% | 84% | inhibition of growth at 10 µM [21]: 33%; inhibition of growth at 10 µM [22]: 55%; inhibition of growth at 10 µM [23]: 41%; inhibition of growth at 10 µM [24]: 60%; inhibition of growth at 10 µM [25]: 43%; inhibition of growth at 10 µM [26]: 28%; inhibition of growth at 10 µM [27]: 60%; inhibition of growth at 10 µM [28]: 61%; inhibition of growth at 10 µM [29]: 59%; inhibition of growth at 10 µM [30]: 52%; inhibition of growth at 10 µM [31]: 33%; inhibition of growth at 10 µM [32]: 20%; inhibition of growth at 10 µM [33]: 55%; inhibition of growth at 10 µM [34]: 65%; inhibition of growth at 10 µM [35]: 53%; inhibition of growth at 10 µM [36]: 59%; inhibition of growth at 10 µM [37]: 49%; inhibition of growth at 10 µM [38]: 60%; inhibition of growth at 10 µM [39]: 21%; inhibition of growth at 10 µM [40]: 44%
COc1ccc(/C=N/Nc2nc(Nc3ccccc3)nc(Nc3ccc(S(N)(=O)=O)cc3)n2)cc1 | 12% | 23% | 50% | 29% | 36% | 23% | 23% | 54% | 15% | 99.4 nM | 44% | 32% | < 10% | 38% | 33% | 13% | 52% | 27% | 34% | 59% | inhibition of growth at 10 µM [21]: 12%; inhibition of growth at 10 µM [22]: 38%; inhibition of growth at 10 µM [23]: 26%; inhibition of growth at 10 µM [24]: 41%; inhibition of growth at 10 µM [25]: 19%; inhibition of growth at 10 µM [26]: 11%; inhibition of growth at 10 µM [27]: 22%; inhibition of growth at 10 µM [28]: 12%; inhibition of growth at 10 µM [29]: 25%; inhibition of growth at 10 µM [30]: 24%; inhibition of growth at 10 µM [31]: 17%; inhibition of growth at 10 µM [32]: < 10%; inhibition of growth at 10 µM [33]: 31%; inhibition of growth at 10 µM [34]: 44%; inhibition of growth at 10 µM [35]: 24%; inhibition of growth at 10 µM [36]: 29%; inhibition of growth at 10 µM [37]: 18%; inhibition of growth at 10 µM [38]: 51%; inhibition of growth at 10 µM [39]: < 10%; inhibition of growth at 10 µM [40]: 25%
